Kd data for 53 compounds are collected here from patent US10508120B2, “TYK2 inhibitors and uses thereof” (Nimbus Lakshmi, Inc., priority 2017, dated 2019).

Where only a bound is given, the exact number is not on record here.

As usually defined, the Kd is the equilibrium constant for the complex coming apart. Low readings indicate higher affinity, high ones lower affinity.

Sequence of human TYK2 (JH2domain-pseudokinase) (P29597 556-888): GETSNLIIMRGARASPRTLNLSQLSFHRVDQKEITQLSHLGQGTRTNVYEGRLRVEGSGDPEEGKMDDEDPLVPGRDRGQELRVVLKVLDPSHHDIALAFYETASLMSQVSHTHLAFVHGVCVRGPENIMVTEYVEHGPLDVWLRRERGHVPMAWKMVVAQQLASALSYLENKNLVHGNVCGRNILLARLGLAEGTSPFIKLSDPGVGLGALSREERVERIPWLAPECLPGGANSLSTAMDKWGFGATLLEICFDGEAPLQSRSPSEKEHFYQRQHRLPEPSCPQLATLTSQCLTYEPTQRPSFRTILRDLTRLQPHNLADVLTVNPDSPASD

The target of this assay is human TYK2 (JH2domain-pseudokinase) (Homo sapiens (Human), UniProt P29597). Put plainly: TYK2 JH2 Domain Binding Assay (KINOMEscan). The procedure:
Binding constants for compounds of the present invention against the JH2 domain were determined by the following protocol for a KINOMEscan® assay (DiscoveRx). A fusion protein of a partial length construct of human TYK2 (JH2domain-pseudokinase) (amino acids G556 to D888 based on reference sequence NP_003322.3) and the DNA binding domain of NFkB was expressed in transiently transfected HEK293 cells. From these HEK 293 cells, extracts were prepared in M-PER extraction buffer (Pierce) in the presence of Protease Inhibitor Cocktail Complete (Roche) and Phosphatase Inhibitor Cocktail Set II (Merck) per manufacturers' instructions. The TYK2 (JH2domain-pseudokinase) fusion protein was labeled with a chimeric double-stranded DNA tag containing the NFkB binding site (5′-[…]-3′) fused to an amplicon for qPCR readout, which was added directly to the expression extract (the final concentration of DNA-tag in the binding reaction is 0.1 nM).
The liganded beads were blocked with excess biotin and washed with blocking buffer (SeaBlock (Pierce), 1% BSA, 0.05% Tween 20, 1 mM DTT) to remove unbound ligand and to reduce nonspecific binding.
Extracts were used directly in binding assays without any enzyme purification steps at a ≥10,000-fold overall stock dilution (final DNA-tagged enzyme concentration <0.1 nM). Extracts were loaded with DNA-tag and diluted into the binding reaction in a two step process. First extracts were diluted 1:100 in 1× binding buffer (PBS/0.05% Tween 20/10 mM DTT/0.1% BSA/2 μg/ml sonicated salmon sperm DNA) containing 10 nM DNA-tag. This dilution was allowed to equilibrate at room temperature for 15 minutes and then subsequently diluted 1:100 in 1× binding buffer. […] Kds were determined using an 11-point 3-fold compound dilution series with three DMSO control points. […] The compounds were then diluted directly into the assays such that the final concentration of DMSO was 0.9%. All reactions performed in polypropylene 384-well plates. Each was a final volume of 0.02 mL. Assays were incubated with shaking for 1 hour at room temperature. Then the beads were pelleted and washed with wash buffer (1×PBS, 0.05% Tween 20) to remove displaced kinase and test compound. […] The qPCR protocol consisted of a 10 minute hot start at 95° C., followed by 35 cycles of 95° C. for 15 seconds, 60° C. for 1 minute.
Kds were determined using an 11-point 3-fold compound dilution series with three DMSO control points. […] The compounds were then diluted directly into the assays such that the final concentration of DMSO was 0.9%. The Kds were determined using a compound top concentration of 30,000 nM. Kd measurements were performed in duplicate.
Binding constants (Kds) were calculated with a standard dose-response curve using the Hill equation: […]
The Hill Slope was set to −1.
For `CCO[C@@H]1CC[C@H]1NC(=O)c1cnn2c(NC)cc(Nc3cccn(-c4ccccn4)c3=O)nc12` [I-1294], the dissociation constant Kd was under 0.2 nM.

For `CNc1cc(Nc2cccnc2OC)nc2c(C(=O)N[C@@H]3COC[C@@H]3O)cnn12` [I-519], the Kd was under 0.2 nM.

`CNc1cc(Nc2cccn([C@H]3CCCC[C@H]3OC)c2=O)nc2c(C(=O)N[C@@H]3CC[C@H]3OC)cnn12` [I-1376] had an equilibrium dissociation constant (Kd) of over 10 nM.

Consider `CNc1cc(Nc2cccn([C@@H]3CC[C@H]3O)c2=O)nc2c(C(=O)N[C@@H]3CCC[C@@H](OC)C3)cnn12` [I-1253], for which the dissociation constant (Kd) is over 10 nM.

`CNc1cc(Nc2cccn(C3CC(F)(F)C3)c2=O)nc2c(C(=O)N[C@H]3CC[C@H]3O)cnn12` [I-1306]: the Kd lay in the range of 1 to 10 nM.

For `CNc1cc(Nc2cccn([C@H]3C[C@@H]3F)c2=O)nc2c(C(=O)N[C@@H]3CC[C@H](O)C3)cnn12` [I-1202], the Kd lay in the range of 1 to 10 nM.

Consider `CNc1cc(Nc2cccn([C@H]3CC[C@H]3O)c2=O)nc2c(C(=O)N[C@@H]3C[C@@H]3F)cnn12` [I-1284], for which the equilibrium dissociation constant (Kd) was 0.2 to 1 nM.

On to `CNc1cc(Nc2cccn(-c3nc(C)co3)c2=O)nc2c(C(=O)NC(C)(C)C#N)cnn12` [I-1260], for which the Kd was in the range of 0.2 to 1 nM.

In turn, `CNc1cc(-c2cn([C@H]3CCC[C@@H]3OC)c3ncccc23)nc2c(C(=O)N[C@@H]3CC[C@@H]3O)cnn12` [I-1224, N-((1R,2S)-2-hydroxycyclobutyl)-5-(1-((1S,2S)-2-methoxycyclopentyl)-1H-pyrrolo[2,3-b]pyridin-3-yl)-7-(methylamino)pyrazolo[1,5-a]pyrimidine-3-carboxamide] displayed a Kd of 1 to 10 nM.

As for `CNc1cc(-c2cn([C@H]3CCN(CCF)C3)c3ncccc23)nc2c(C(=O)NC3CC3)cnn12` [I-1363], the dissociation constant (Kd) fell in the range of 0.2 to 1 nM.

With `CNc1cc(Nc2cccn(C(C)C)c2=O)nc2c(C(=O)N[C@@H]3CCC[C@@](C)(O)C3)cnn12` [I-1337], the dissociation constant Kd was under 0.2 nM.

For `CNc1cc(-c2cn(C(C)C)c3ncccc23)nc2c(C(=O)N[C@H]3CC[C@@]3(C)O)cnn12` [I-1409], the equilibrium dissociation constant (Kd) lay within 0.2 to 1 nM.

Regarding `CNc1cc(Nc2cccn([C@@H]3CCCC[C@@H]3O)c2=O)nc2c(C(=O)N[C@H]3CC[C@@H]3OC)cnn12` [I-1338], the Kd is 0.2 to 1 nM.

As for `CNc1cc(-c2cn(C3CC3)c3ncccc23)nc2c(C(=O)N[C@@H]3CCC[C@@]3(C)O)cnn12` [I-1280], the Kd was under 0.2 nM.

`NC(=O)c1cnn2c(N)cc(Nc3cc(Cl)cnc3O[C@@H]3CCOC3)nc12` [I-85] came in with a Kd of 1 to 10 nM.

For the compound `CNc1cc(Nc2cccn(-c3ccc(C)nc3)c2=O)nc2c(C(=O)N[C@H]3CCC[C@H](OC)C3)cnn12` [I-1289], the Kd is 1 to 10 nM.

In turn, `CNc1cc(Nc2cccn(C3CCOCC3)c2=O)nc2c(C(=O)N[C@@H]3CC[C@H](O)C3)cnn12` [I-1357] returned a dissociation constant (Kd) of over 10 nM.

Consider `CNc1cc(Nc2cccn([C@H]3C[C@@H]3OC)c2=O)nc2c(C(=O)NC3CC3)cnn12` [I-1228], for which the Kd was 1 to 10 nM.

For `CNc1cc(Nc2cccn3ccnc23)nc2c(C(=O)N[C@@H]3CCC[C@@]3(C)O)cnn12` [I-1238], the Kd is under 0.2 nM.

In the case of `CNc1cc(Nc2cccn([C@@H]3C[C@H]3F)c2=O)nc2c(C(=O)N[C@H]3CC[C@@H]3OC)cnn12` [I-1205], the Kd was under 0.2 nM.

On to `CNc1cc(Nc2cccn([C@H]3CCCN(CCF)C3)c2=O)nc2c(C(=O)N[C@H]3CC[C@@H]3OC)cnn12` [I-1215], for which the Kd is under 0.2 nM.

With `CNc1cc(-c2cn([C@@H]3CCC[C@H]3OC)c3ncccc23)nc2c(C(=O)N[C@@H]3CC[C@@H]3O)cnn12` [I-1247, N-((1R,2S)-2-hydroxycyclobutyl)-5-(1-((1R,2R)-2-methoxycyclopentyl)-1H-pyrrolo[2,3-b]pyridin-3-yl)-7-(methylamino)pyrazolo[1,5-a]pyrimidine-3-carboxamide], the dissociation constant (Kd) is under 0.2 nM.

As for `CNc1cc(Nc2cccn([C@@H]3CCCN(CCF)C3)c2=O)nc2c(C(=O)N[C@@H]3CC[C@H]3OC)cnn12` [I-1383], the Kd fell in the range of 1 to 10 nM.

The compound `CNc1cc(Nc2cccn([C@H]3CC[C@@H](OC)CC3)c2=O)nc2c(C(=O)N[C@H]3CC[C@H]3O)cnn12` [I-1292] came in with a Kd of under 0.2 nM.

In the case of `CNc1cc(Nc2cccn(C(C)C)c2=O)nc2c(C(=O)N[C@@H]3CC[C@H](O)C3)cnn12` [I-1266], the Kd was under 0.2 nM.

`CNc1cc(Nc2cccn([C@H]3C[C@@H]3OC)c2=O)nc2c(C(=O)N[C@@H]3CC[C@H]3OC)cnn12` [I-1186]: the equilibrium dissociation constant (Kd) is under 0.2 nM.

On to `CNc1cc(Nc2cccn([C@@H]3CCCOC3)c2=O)nc2c(C(=O)N[C@@H]3CCC[C@@](C)(OC)C3)cnn12` [I-1236], for which the Kd is under 0.2 nM.

Turning to `CNc1cc(Nc2cccn(-c3cccnc3)c2=O)nc2c(C(=O)N[C@@H]3CCC[C@@H](OC)C3)cnn12` [I-1218], the equilibrium dissociation constant (Kd) is 1 to 10 nM.

For `CNc1cc(-c2cn(C3CCOCC3)c3ncccc23)nc2c(C(=O)N[C@H]3CC[C@@H]3OC)cnn12` [I-1329], the Kd was over 10 nM.

With `CNc1cc(-c2cn([C@@H]3CCCOC3)c3ncccc23)nc2c(C(=O)N[C@H]3CC[C@@H]3OC)cnn12` [I-1268], the Kd was over 10 nM.

The compound `CNc1cc(-c2cn(C(C)C)c3ncccc23)nc2c(C(=O)N[C@H]3CC[C@@]3(C)O)cnn12` [I-1327] returned an equilibrium dissociation constant (Kd) of under 0.2 nM.

`CNc1cc(-c2cn(C3CC3)c3ncccc23)nc2c(C(=O)N[C@H]3CCC[C@]3(C)O)cnn12` [I-1335]: the Kd is under 0.2 nM.

For the compound `CNc1cc(Nc2cccn([C@H]3CCC[C@H]3OC)c2=O)nc2c(C(=O)NC3CC3)cnn12` [I-525], the Kd is over 10 nM.

The compound `CNc1cc(Nc2cccn(C3CCOCC3)c2=O)nc2c(C(=O)N[C@@H]3CCC[C@@H](O)C3)cnn12` [I-1290] had a Kd of over 10 nM.

`CNc1cc(Nc2cccn(-c3ocnc3C)c2=O)nc2c(C(=O)N[C@H]3CC[C@H]3O)cnn12` [I-1259]: the Kd was over 10 nM.

For `CNc1cc(Nc2cccn([C@H]3CC[C@@H]3O)c2=O)nc2c(C(=O)N[C@@H]3CCC[C@@H](OC)C3)cnn12` [I-1252], the Kd is under 0.2 nM.

On to `CNc1cc(Nc2cccn([C@@H]3C[C@H]3OC)c2=O)nc2c(C(=O)N[C@H]3CC[C@@H]3OC)cnn12` [I-1233], for which the Kd fell in the range of 1 to 10 nM.

Take `CNc1cc(Nc2cccn(-c3cccc(F)c3)c2=O)nc2c(C(=O)N[C@H]3COC[C@H]3O)cnn12` [I-1407]: the dissociation constant (Kd) was under 0.2 nM.

For the compound `CNc1cc(Nc2cccn([C@H]3CC[C@H]3O)c2=O)nc2c(C(=O)N[C@H]3CC[C@@H]3OC)cnn12` [I-1410], the Kd is under 0.2 nM.

Compound `CNc1cc(-c2cn(CCCO)c3ncccc23)nc2c(C(=O)N[C@H]3CC[C@@H]3OC)cnn12` [I-1300] yielded a Kd of 1 to 10 nM.

The compound `CNc1cc(Nc2cccn(C3CC(F)(F)C3)c2=O)nc2c(C(=O)N[C@H]3CC[C@@H]3O)cnn12` [I-1390] registered an equilibrium dissociation constant (Kd) of 1 to 10 nM.

`CNc1cc(Nc2cccn([C@@H]3C[C@H]3F)c2=O)nc2c(C(=O)N[C@@H]3CC[C@@H]3O)cnn12` [I-1403] returned an equilibrium dissociation constant (Kd) of 0.2 to 1 nM.

On to `CNc1cc(Nc2cccnc2OC2CC2)nc2c(C(=O)N[C@H]3COC[C@H]3O)cnn12` [I-520], for which the dissociation constant (Kd) lay within 0.2 to 1 nM.

Take `CNc1cc(-c2cn([C@@H]3CCCOC3)c3ncccc23)nc2c(C(=O)N[C@H]3COC[C@H]3O)cnn12` [I-1185]: the Kd was 1 to 10 nM.

On to `CNc1cc(Nc2cc(Cl)cnc2O[C@@H]2CCOC2)nc2c(C(N)=O)cnn12` [I-84], for which the Kd was 0.2 to 1 nM.

For `CNc1cc(Nc2cccn(-c3cccc(F)c3)c2=O)nc2c(C(=O)N[C@@H]3COC[C@@H]3O)cnn12` [I-1303], the dissociation constant (Kd) fell in the range of 1 to 10 nM.

Take `CNc1cc(Nc2cccn(-c3cccnc3)c2=O)nc2c(C(=O)N[C@H]3CCC[C@H](OC)C3)cnn12` [I-1217]: the Kd was under 0.2 nM.

`CNc1cc(Nc2cccn(C(C)C)c2=O)nc2c(C(=O)N[C@H]3COC[C@H]3O)cnn12` [I-1302] had an equilibrium dissociation constant (Kd) of under 0.2 nM.

For the compound `CNc1cc(Nc2cccn([C@@H]3CCC[C@@H](OC)C3)c2=O)nc2c(C(=O)N[C@@H]3CC[C@H]3OC)cnn12` [I-1330], the Kd is under 0.2 nM.

On to `CNc1cc(Nc2cccn([C@H]3CCCN(CCF)C3)c2=O)nc2c(C(=O)N[C@@H]3CC[C@H]3OC)cnn12` [I-1216], for which the Kd is 0.2 to 1 nM.

`CCO[C@@H]1CC[C@H]1NC(=O)c1cnn2c(NC)cc(Nc3cccn(-c4ccccn4)c3=O)nc12` [I-1232] came in with a Kd of 0.2 to 1 nM.

`CNc1cc(Nc2cccnc2OC(C)C)nc2c(C(=O)NC3COC3)cnn12` [I-86] came in with an equilibrium dissociation constant (Kd) of over 10 nM.

`CNc1cc(Nc2cccn([C@H]3CCCOC3)c2=O)nc2c(C(=O)N[C@H]3C[C@@H]3OC)cnn12` [I-1249] had an equilibrium dissociation constant (Kd) of under 0.2 nM.
